Data reported in patent US6525001B1, “Substituted pyrimidine and pyridine herbicides” (Mid-American Commercialization Corporation, priority 1997, dated 2003).

Experiments:
Assay type in all cases: in vivo
[1] = system: smallflower flatsedge (Cyperus difformis); experiment: Test B flood test
Description: (§1) At the same time, these crop and weed species were also treated with postemergence applications of test chemicals formulated in the same manner. Plants ranged in height from 2 to 18 cm (1- to 4-leaf stage) for postemergence treatments. Plant species in the flood test consisted of rice (Oryza sativa), smallflower flatsedge (Cyperus difformis), duck salad (Heteranthera limosa) and bamyardgrass (Echinochloa crus-galli) grown to the 2-leaf stage for testing. Treated plants and controls were maintained in a greenhouse for twelve to sixteen days, after which all species were compared to controls and visually evaluated. Plant response ratings, summarized in Table B, are based on a scale of 0 to 10 where 0 is no effect and 10 is complete control. A dash (−) response means no test result.

[2] = system: bamyardgrass (Echinochloa crus-galli); experiment: Test B flood test
Description: as §1

[3] = system: duck salad (Heteranthera limosa); experiment: Test B flood test
Description: as §1

rice (Oryza sativa) = experiment: Test B flood test
Description: as §1

[4] = system: broadleaf signalgrass (Brachiaria decumbens); experiment: Test B pre-/postemergence; design: key: 0 is no effect; 10 is complete control; conditions: for B. signalgrass plant response rating: Preemergence
From the text: (§2) Seeds of bedstraw (Galium aparine), blackgrass (Alopecurus myosuroides), broadleaf signalgrass (Brachiaria decumbens), cocklebur (Xanthium strumarium), corn (Zea mays), crabgrass (Digitaria sanguinalis), giant foxtail (Setaria faberii), lambsquarters (Chenopodium album), momingglory (Ipomoea hederacea), pigweed (Amaranthus retroflexus), rape (Brassica napus), soybean (Glycine max), sugar beet (Beta vulgaris), velvetleaf (Abutilon theophrasti), wheat (Triticum aestivum), wild oat (Avena fatua) and purple nutsedge (Cyperus rotundus) tubers were planted and treated preemergence with test chemicals formulated in a non-phytotoxic solvent mixture which included a surfactant.
as §1

[5] = system: momingglory (Ipomoea hederacea); experiment: Test B pre-/postemergence; design: key: 0 is no effect; 10 is complete control
From the text: as §2, §1

rape (Brassica napus) = experiment: Test B pre-/postemergence; design: key: 0 is no effect; 10 is complete control
From the text: as §2, §1

[6] = system: wheat (Triticum aestivum); experiment: Test B pre-/postemergence; design: key: 0 is no effect; 10 is complete control
From the text: as §2, §1

[7] = system: blackgrass (Alopecurus myosuroides); experiment: Test B pre-/postemergence; design: key: 0 is no effect; 10 is complete control; conditions: for Blackgrass plant response rating: Preemergence
From the text: as §2, §1

corn (Zea mays) = experiment: Test B pre-/postemergence; design: key: 0 is no effect; 10 is complete control; conditions: for Corn plant response rating: Preemergence
From the text: as §2, §1

[8] = system: crabgrass (Digitaria sanguinalis); experiment: Test B pre-/postemergence; design: key: 0 is no effect; 10 is complete control; conditions: for Crabgrass plant response rating: Preemergence
From the text: as §2, §1

wild oat (Avena fatua) = experiment: Test B pre-/postemergence; design: key: 0 is no effect; 10 is complete control
From the text: as §2, §1

[9] = system: pigweed (Amaranthus retroflexus); experiment: Test B pre-/postemergence; design: key: 0 is no effect; 10 is complete control
From the text: as §2, §1

[10] = system: sugar beet (Beta vulgaris); experiment: Test B pre-/postemergence; design: key: 0 is no effect; 10 is complete control
From the text: as §2, §1

[11] = system: bedstraw (Galium aparine); experiment: Test B pre-/postemergence; design: key: 0 is no effect; 10 is complete control; conditions: for Bedstraw plant response rating: Preemergence
From the text: as §2, §1

[12] = system: velvetleaf (Abutilon theophrasti); experiment: Test B pre-/postemergence; design: key: 0 is no effect; 10 is complete control
From the text: as §2, §1

[13] = system: giant foxtail (Setaria faberii); experiment: Test B pre-/postemergence; design: key: 0 is no effect; 10 is complete control
From the text: as §2, §1

[14] = system: cocklebur (Xanthium strumarium); experiment: Test B pre-/postemergence; design: key: 0 is no effect; 10 is complete control; conditions: for Cocklebur plant response rating: Preemergence
From the text: as §2, §1

soybean (Glycine max) = experiment: Test B pre-/postemergence; design: key: 0 is no effect; 10 is complete control
From the text: as §2, §1

[15] = Rate 62 g/ha, Postemergence (flood test)
[16] = Rate 125 g/ha, Postemergence section (flood test species)
[17] = Rate 250 g/ha, Postemergence (flood test species)
[18] = Rate 125 g/ha, Postemergence, flood test
[19] = Rate 250 g/ha, Postemergence (so in the source)

CCc1cnc(-n2cnc(C(F)(F)F)c2)nc1Cc1cccc(OC(F)(F)F)c1 [Compound 49]
Plant response rating, S. Flatsedge [1, 15]: 4
S. Flatsedge plant response rating [1, 16]: 4
Plant response rating, S. Flatsedge [1, 17]: 9
Plant response rating, Barnyardgrass [2, 15]: 5
Plant response rating, Barnyardgrass [2, 18]: 5
Plant response rating, Barnyardgrass [2, 17]: 6
Plant response rating, Ducksalad [3, 15]: 4
Plant response rating, Ducksalad [3, 18]: 4
Plant response rating, Ducksalad [3, 17]: 4
Plant response rating, Rice (rice (Oryza sativa); [15]): 3
Rice plant response rating (rice (Oryza sativa); [16]): 4
Plant response rating, Rice (rice (Oryza sativa); [17]): 5
Plant response rating, B. signalgrass ([4]; Rate 62 g/ha, Postemergence): 2
B. signalgrass plant response rating ([4]; Rate 62 g/ha): 0
Plant response rating, B. signalgrass ([4]; Rate 125 g/ha, Postemergence): 3
B. signalgrass plant response rating ([4]; Rate 125 g/ha): 1
Plant response rating, B. signalgrass ([4]; Rate 250 g/ha, Postemergence): 4
Plant response rating, B. signalgrass ([4]; Rate 250 g/ha, Postemergence as printed in head r139 (second section for compounds 26-50)): 5
Plant response rating, Morningglory ([5]; Rate 62 g/ha, Postemergence): 2
Morningglory plant response rating ([5]; Rate 62 g/ha, Preemergence): 1
Morningglory plant response rating ([5]; Rate 125 g/ha, Postemergence): 6
Morningglory plant response rating ([5]; Rate 125 g/ha, Preemergence): 3
Plant response rating, Morningglory ([5]; Rate 250 g/ha, Postemergence): 9
Plant response rating, Morningglory [5, 19]: 4
Plant response rating, Rape (rape (Brassica napus); Rate 62 g/ha, Postemergence): 9
Rape plant response rating (rape (Brassica napus); Rate 62 g/ha, Preemergence): 7
Rape plant response rating (rape (Brassica napus); Rate 125 g/ha, Postemergence): 9
Rape plant response rating (rape (Brassica napus); Rate 125 g/ha, Preemergence): 8
Plant response rating, Rape (rape (Brassica napus); Rate 250 g/ha, Postemergence): 9
Plant response rating, Rape (rape (Brassica napus); [19]): 10
Wheat plant response rating ([6]; Rate 62 g/ha, Postemergence): 4
Wheat plant response rating ([6]; Rate 62 g/ha, Preemergence): 1
Wheat plant response rating ([6]; Rate 125 g/ha, Postemergence): 5
Plant response rating, Wheat ([6]; Rate 125 g/ha, Preemergence): 4
Plant response rating, Wheat ([6]; Rate 250 g/ha, Postemergence): 5
Plant response rating, Wheat [6, 19]: 4
Plant response rating, Blackgrass ([7]; Rate 62 g/ha, Postemergence): 5
Blackgrass plant response rating ([7]; Rate 62 g/ha): 4
Plant response rating, Blackgrass ([7]; Rate 125 g/ha, Postemergence): 6
Blackgrass plant response rating ([7]; Rate 125 g/ha): 4
Plant response rating, Blackgrass ([7]; Rate 250 g/ha, Postemergence): 6
Plant response rating, Blackgrass [7, 19]: 6
Plant response rating, Corn (corn (Zea mays); Rate 62 g/ha, Postemergence): 3
Corn plant response rating (corn (Zea mays); Rate 62 g/ha): 0
Plant response rating, Corn (corn (Zea mays); Rate 125 g/ha, Postemergence): 3
Corn plant response rating (corn (Zea mays); Rate 125 g/ha): 1
Plant response rating, Corn (corn (Zea mays); Rate 250 g/ha, Postemergence): 4
Plant response rating, Corn (corn (Zea mays); [19]): 1
Plant response rating, Crabgrass ([8]; Rate 62 g/ha, Postemergence): 5
Crabgrass plant response rating ([8]; Rate 62 g/ha): 5
Plant response rating, Crabgrass ([8]; Rate 125 g/ha, Postemergence): 6
Crabgrass plant response rating ([8]; Rate 125 g/ha): 7
Plant response rating, Crabgrass ([8]; Rate 250 g/ha, Postemergence): 9
Plant response rating, Crabgrass [8, 19]: 9
Wild oats plant response rating (wild oat (Avena fatua); Rate 62 g/ha, Postemergence): 5
Wild oats plant response rating (wild oat (Avena fatua); Rate 62 g/ha, Preemergence): 2
Wild oats plant response rating (wild oat (Avena fatua); Rate 125 g/ha, Postemergence): 6
Plant response rating, Wild oats (wild oat (Avena fatua); Rate 125 g/ha, Preemergence): 6
Plant response rating, Wild oats (wild oat (Avena fatua); Rate 250 g/ha, Postemergence): 7
Plant response rating, Wild oats (wild oat (Avena fatua); [19]): 7
Plant response rating, Redroot pigweed ([9]; Rate 62 g/ha, Postemergence): 9
Redroot pigweed plant response rating ([9]; Rate 62 g/ha, Preemergence): 8
Redroot pigweed plant response rating ([9]; Rate 125 g/ha, Postemergence): 9
Redroot pigweed plant response rating ([9]; Rate 125 g/ha, Preemergence): 8
Plant response rating, Redroot pigweed ([9]; Rate 250 g/ha, Postemergence): 9
Plant response rating, Redroot pigweed [9, 19]: 10
Plant response rating, Sugarbeets ([10]; Rate 62 g/ha, Postemergence): 9
Sugarbeets plant response rating ([10]; Rate 62 g/ha, Preemergence): 6
Sugarbeets plant response rating ([10]; Rate 125 g/ha, Postemergence): 9
Plant response rating, Sugarbeets ([10]; Rate 125 g/ha, Preemergence): 6
Plant response rating, Sugarbeets ([10]; Rate 250 g/ha, Postemergence): 9
Plant response rating, Sugarbeets [10, 19]: 9
Plant response rating, Bedstraw ([11]; Rate 62 g/ha, Postemergence): 9
Bedstraw plant response rating ([11]; Rate 62 g/ha): 4
Bedstraw plant response rating ([11]; Rate 125 g/ha): 7
Plant response rating, Bedstraw [11, 19]: 8
Plant response rating, Velvetleaf ([12]; Rate 62 g/ha, Postemergence): 8
Velvetleaf plant response rating ([12]; Rate 62 g/ha, Preemergence): 3
Velvetleaf plant response rating ([12]; Rate 125 g/ha, Postemergence): 8
Plant response rating, Velvetleaf ([12]; Rate 125 g/ha, Preemergence): 8
Plant response rating, Velvetleaf ([12]; Rate 250 g/ha, Postemergence): 9
Plant response rating, Velvetleaf [12, 19]: 8
Plant response rating, Giant foxtail ([13]; Rate 62 g/ha, Postemergence): 2
Giant foxtail plant response rating ([13]; Rate 62 g/ha, Preemergence): 5
Giant foxtail plant response rating ([13]; Rate 125 g/ha, Postemergence): 5
Giant foxtail plant response rating ([13]; Rate 125 g/ha, Preemergence): 8
Plant response rating, Giant foxtail ([13]; Rate 250 g/ha, Postemergence): 5
Plant response rating, Giant foxtail [13, 19]: 9
Plant response rating, Cocklebur ([14]; Rate 62 g/ha, Postemergence): 7
Cocklebur plant response rating ([14]; Rate 62 g/ha): 0
Plant response rating, Cocklebur ([14]; Rate 125 g/ha, Postemergence): 7
Cocklebur plant response rating ([14]; Rate 125 g/ha): 0
Plant response rating, Cocklebur ([14]; Rate 250 g/ha, Postemergence): 9
Plant response rating, Cocklebur [14, 19]: 2
Plant response rating, Soybean (soybean (Glycine max); Rate 62 g/ha, Postemergence): 6
Soybean plant response rating (soybean (Glycine max); Rate 62 g/ha, Preemergence): 0
Soybean plant response rating (soybean (Glycine max); Rate 125 g/ha, Postemergence): 7
Plant response rating, Soybean (soybean (Glycine max); Rate 125 g/ha, Preemergence): 1
Plant response rating, Soybean (soybean (Glycine max); Rate 250 g/ha, Postemergence): 7
Plant response rating, Soybean (soybean (Glycine max); [19]): 1
